Results published in the supplement of paper PMC10307832.

Key:
Assay in all cases: relative viability (nuclei count vs DMSO), 5 days (fraction); higher = more cells survive
Zebularine + Lapatinib = compound: O=c1ncccn1[C@@H]1O[C@H](CO)[C@@H](O)[C@H]1O [Zebularine] + CS(=O)(=O)CCNCc1ccc(-c2ccc3ncnc(Nc4ccc(OCc5cccc(F)c5)c(Cl)c4)c3c2)o1 [Lapatinib] (partner 2 µM)
Method in brief: (§1)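 After 5 days of treatment, lung cancer cells in 1536-well plates were fixed and stained in a single step (final 0.05% Triton X-100, 1% formaldehyde, 1 ug/ml Hoechst) and their nuclei counted on 4× images. Treatment had been applied by pin tool the day after seeding as one drug alone or as a fixed anchor-drug dose with five library-drug doses (not always all listed) in √10 steps. Relative viability is the nuclei count of treated wells divided by that of vehicle wells, and values are medians of duplicate plates.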

BI-D1870 + Linsitinib = compound: CC(C)CCN1c2nc(Nc3cc(F)c(O)c(F)c3)ncc2N(C)C(=O)C1C [BI-D1870] + C[C@]1(O)C[C@@H](c2nc(-c3ccc4ccc(-c5ccccc5)nc4c3)c3c(N)nccn32)C1 [Linsitinib] (partner 1 µM)
Method in brief: as §1

BI-D1870 + Pemetrexed = compound: CC(C)CCN1c2nc(Nc3cc(F)c(O)c(F)c3)ncc2N(C)C(=O)C1C [BI-D1870] + Nc1nc2[nH]cc(CCc3ccc(C(=O)N[C@@H](CCC(=O)O)C(=O)O)cc3)c2c(=O)[nH]1 [Pemetrexed] (partner 0.2 µM)
Method in brief: as §1

BI-D1870 + Dasatinib = compound: CC(C)CCN1c2nc(Nc3cc(F)c(O)c(F)c3)ncc2N(C)C(=O)C1C [BI-D1870] + Cc1nc(Nc2ncc(C(=O)Nc3c(C)cccc3Cl)s2)cc(N2CCN(CCO)CC2)n1 [Dasatinib] (partner 0.075 µM)
Method in brief: as §1

Row | Cell Line | relative viability (Zebularine + Lapatinib; first compound 1 µM) | relative viability (Zebularine + Lapatinib; first compound 3.162 µM) | relative viability (Zebularine + Lapatinib; first compound 10 µM) | relative viability (Zebularine + Lapatinib; first compound 31.62 µM) | relative viability (Zebularine + Lapatinib; first compound 100 µM) | relative viability (BI-D1870 + Linsitinib; first compound 0.04 µM) | relative viability (BI-D1870 + Linsitinib; first compound 0.1265 µM) | relative viability (BI-D1870 + Linsitinib; first compound 0.4 µM) | relative viability (BI-D1870 + Linsitinib; first compound 1.265 µM) | relative viability (BI-D1870 + Linsitinib; first compound 4 µM) | relative viability (BI-D1870 + Pemetrexed; first compound 0.04 µM) | relative viability (BI-D1870 + Pemetrexed; first compound 0.1265 µM) | relative viability (BI-D1870 + Pemetrexed; first compound 0.4 µM) | relative viability (BI-D1870 + Pemetrexed; first compound 1.265 µM) | relative viability (BI-D1870 + Pemetrexed; first compound 4 µM) | relative viability (BI-D1870 + Dasatinib; first compound 0.04 µM) | relative viability (BI-D1870 + Dasatinib; first compound 0.1265 µM) | relative viability (BI-D1870 + Dasatinib; first compound 0.4 µM) | relative viability (BI-D1870 + Dasatinib; first compound 1.265 µM) | relative viability (BI-D1870 + Dasatinib; first compound 4 µM)
1 | PC-3 [JPC-3] | 0.479 | 0.471 | 0.412 | 0.482 | 0.411 | 0.959 | 0.913 | 0.956 | 1.02 | 0.897 | 1.1 | 1.1 | 1.01 | 0.806 | 0.479 | 1 | 0.892 | 1.01 | 1.12 | 0.947
2 | EMC-BAC-2 | 0.984 | 0.964 | 0.647 | 0.968 | 0.981 | 0.864 | 0.748 | 0.792 | 0.802 | 0.799 | 0.457 | 0.456 | 0.421 | 0.541 | 0.46 | 0.344 | 0.326 | 0.377 | 0.316 | 0.296
3 | LK-2 | 0.947 | 1.04 | 0.584 | 0.539 | 0.283 | 0.616 | 0.518 | 0.512 | 0.497 | 0.457 | 0.253 | 0.352 | 0.31 | 0.306 | 0.282 | 0.442 | 0.359 | 0.239 | 0.241 | 0.281
4 | NCI-H2126 | 0.843 | 0.774 | 0.695 | 0.76 | 0.619 | 0.724 | 0.712 | 0.694 | 0.73 | 0.677 | 0.694 | 0.726 | 0.649 | 0.744 | 0.552 | 0.575 | 0.6 | 0.55 | 0.548 | 0.483
5 | NCI-H3122 | 1.12 | 1.05 | 0.911 | 1.04 | 1.05 | 1.06 | 0.925 | 0.988 | 0.974 | 1.02 | 0.187 | 0.194 | 0.203 | 0.222 | 0.202 | 0.845 | 0.744 | 0.834 | 0.955 | 0.92
6 | HCC-44 | 1.07 | 1.07 | 0.566 | 0.951 | 0.454 | 0.718 | 0.667 | 0.679 | 0.712 | 0.634 | 0.653 | 0.631 | 0.632 | 0.75 | 0.689 | – | – | – | – | –
7 | NCI-H1299 | 0.965 | 0.937 | 0.619 | 0.968 | 0.493 | 1.04 | 0.909 | 0.995 | 1.02 | 0.933 | – | – | – | – | – | – | – | – | – | –
8 | NCI-H727 | 0.724 | 0.797 | 0.65 | 0.948 | 0.772 | 0.323 | 0.328 | 0.252 | 0.371 | 0.261 | – | – | – | – | – | 0.432 | 0.34 | 0.27 | 0.417 | 0.312
9 | LCLC-103H | – | – | – | – | – | 1.17 | 1.02 | 1.05 | 1.36 | 1.06 | 0.453 | 0.457 | 0.48 | 0.434 | 0.439 | 0.537 | 0.38 | 0.454 | 0.469 | 0.469
10 | ABC-1 | 1.05 | 1.08 | 0.655 | 0.642 | 0.605 | 0.857 | 0.835 | 0.718 | 0.946 | 0.782 | – | – | – | – | – | 0.598 | 0.53 | – | 0.577 | 0.409
11 | NCI-H1650 | 0.878 | 0.618 | – | 1.08 | 0.86 | – | – | – | – | – | 0.405 | 0.358 | 0.338 | 0.427 | 0.373 | 0.266 | 0.393 | 0.32 | 0.281 | 0.273
12 | ChaGo-K-1 | – | – | – | – | – | – | – | – | – | – | 0.255 | 0.245 | 0.253 | 0.242 | 0.235 | 0.662 | 0.516 | 0.606 | 0.549 | 0.51
13 | SW 900 | – | – | – | – | – | – | – | – | – | – | 0.44 | 0.463 | 0.471 | 0.516 | 0.434 | 0.66 | 0.456 | 0.662 | 0.499 | 0.338
14 | A549 | 1.16 | 0.941 | 0.438 | 0.698 | 0.2 | 0.703 | 0.57 | 0.588 | 0.649 | 0.573 | – | – | – | – | – | – | – | – | – | –
15 | NCI-H2342 | – | – | – | – | – | – | – | – | – | – | 0.759 | 0.768 | 0.764 | 0.81 | 0.816 | 0.333 | 0.313 | 0.315 | 0.329 | 0.406
16 | NCI-H2170 | 0.302 | 0.263 | 0.251 | 0.26 | 0.266 | – | – | – | – | – | 0.299 | 0.269 | 0.261 | 0.249 | 0.403 | 0.735 | 0.584 | 0.529 | 0.54 | 0.575
17 | NCI-H1623 | – | – | – | – | – | – | – | – | – | – | – | – | – | – | – | 0.558 | 0.581 | 0.527 | 0.473 | 0.452
18 | NCI-H522 | – | – | – | – | – | – | – | – | – | – | 1.24 | 1.01 | 0.978 | 1 | 0.984 | 0.91 | 0.874 | 0.777 | 0.99 | 0.926
19 | IA-LM | 0.908 | 1.07 | – | 0.773 | 0.599 | 0.824 | 0.229 | 0.733 | 0.983 | 0.604 | – | – | – | – | – | – | – | – | – | –
20 | EBC-1 | 0.244 | 0.197 | – | 0.205 | 0.212 | 1.17 | 0.616 | 0.75 | 0.582 | 0.682 | – | – | – | – | – | – | – | – | – | –
